What was measured:
[1] = biological target: human EGFR (native sequence) (Homo sapiens, UniProt P00533); assay: Kinase inhibitory activity against human EGFR (native sequence); format: biochemical; conditions: 10 pt curves, 3 μM top concentration, 10 μM ATP; read-out: IC50 for kinase inhibition, EGFR
In short: (§1)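 Singlicate 10 pt curves; top conc. 3 μM; ATP 10 μM.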

[2] = biological target: EGFR L858R (Homo sapiens, UniProt P00533, L858R); assay: Kinase inhibitory activity against EGFR bearing the L858R mutation; format: biochemical; conditions: 10 pt curves, 3 μM top concentration, 10 μM ATP; read-out: IC50 for kinase inhibition, EGFR L858R
Chain of EGFR L858R (P00533 25-1210 L858R): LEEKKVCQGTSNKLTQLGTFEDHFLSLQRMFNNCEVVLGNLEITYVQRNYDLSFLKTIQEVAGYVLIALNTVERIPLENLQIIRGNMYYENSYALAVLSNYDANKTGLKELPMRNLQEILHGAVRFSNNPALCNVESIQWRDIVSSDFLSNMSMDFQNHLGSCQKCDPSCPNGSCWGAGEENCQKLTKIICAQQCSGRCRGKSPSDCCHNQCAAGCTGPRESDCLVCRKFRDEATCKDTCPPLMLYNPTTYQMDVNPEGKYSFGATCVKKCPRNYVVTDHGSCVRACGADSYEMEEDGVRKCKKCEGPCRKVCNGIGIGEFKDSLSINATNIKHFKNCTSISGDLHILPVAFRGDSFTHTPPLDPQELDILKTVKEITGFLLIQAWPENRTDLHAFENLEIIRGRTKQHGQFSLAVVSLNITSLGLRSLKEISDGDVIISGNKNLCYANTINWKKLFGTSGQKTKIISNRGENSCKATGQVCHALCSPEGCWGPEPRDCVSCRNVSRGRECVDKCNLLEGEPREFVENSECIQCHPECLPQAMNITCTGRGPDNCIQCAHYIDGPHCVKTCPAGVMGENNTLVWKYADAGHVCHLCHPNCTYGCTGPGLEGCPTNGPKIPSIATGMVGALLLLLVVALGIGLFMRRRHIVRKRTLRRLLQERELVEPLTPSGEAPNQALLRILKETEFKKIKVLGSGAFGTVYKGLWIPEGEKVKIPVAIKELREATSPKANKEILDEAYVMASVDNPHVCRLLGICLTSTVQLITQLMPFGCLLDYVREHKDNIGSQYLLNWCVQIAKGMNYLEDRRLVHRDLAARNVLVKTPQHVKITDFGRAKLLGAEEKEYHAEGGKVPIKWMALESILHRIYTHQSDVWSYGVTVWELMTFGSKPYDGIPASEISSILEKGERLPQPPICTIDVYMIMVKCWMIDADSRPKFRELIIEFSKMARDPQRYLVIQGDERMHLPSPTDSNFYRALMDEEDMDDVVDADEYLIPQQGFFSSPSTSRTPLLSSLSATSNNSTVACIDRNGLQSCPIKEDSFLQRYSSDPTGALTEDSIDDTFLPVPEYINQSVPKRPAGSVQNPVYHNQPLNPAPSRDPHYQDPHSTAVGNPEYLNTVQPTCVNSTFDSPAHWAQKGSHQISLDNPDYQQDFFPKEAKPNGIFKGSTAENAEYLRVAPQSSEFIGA
In short: as §1

[3] = biological target: EGFR L858R/T790M (Homo sapiens, UniProt P00533, L858R/T790M); assay: Kinase inhibitory activity against EGFR bearing the L858R/T790M double mutation; format: biochemical; conditions: 10 pt curves, 3 μM top concentration, 10 μM ATP; read-out: IC50 for kinase inhibition, EGFR L858R T790M
In short: as §1

[4] = biological target: T1, BaF3 cells expressing the target EGFR mutations (Homo sapiens, UniProt P00533, T790M, cells depend on it, form not given); assay: Antiproliferative activity (MTT) against BaF3 cells expressing the target EGFR mutations; format: cell-based; conditions: BAF3 EGFR DEL T790M PURO POOL cells, read-out: IC50, BAF3 EGFR DEL T790M PURO POOL
T1 construct: IC50, BAF3 EGFR DEL T790M PURO POOL; other: BAF3 EGFR DEL T790M PURO POOL cells, MTT; other: BAF3 EGFR DEL T790M PURO POOL cells; MTT
T1 sequence (P00533 with tags, fused parts or gaps DEL746-750/T790M, form open): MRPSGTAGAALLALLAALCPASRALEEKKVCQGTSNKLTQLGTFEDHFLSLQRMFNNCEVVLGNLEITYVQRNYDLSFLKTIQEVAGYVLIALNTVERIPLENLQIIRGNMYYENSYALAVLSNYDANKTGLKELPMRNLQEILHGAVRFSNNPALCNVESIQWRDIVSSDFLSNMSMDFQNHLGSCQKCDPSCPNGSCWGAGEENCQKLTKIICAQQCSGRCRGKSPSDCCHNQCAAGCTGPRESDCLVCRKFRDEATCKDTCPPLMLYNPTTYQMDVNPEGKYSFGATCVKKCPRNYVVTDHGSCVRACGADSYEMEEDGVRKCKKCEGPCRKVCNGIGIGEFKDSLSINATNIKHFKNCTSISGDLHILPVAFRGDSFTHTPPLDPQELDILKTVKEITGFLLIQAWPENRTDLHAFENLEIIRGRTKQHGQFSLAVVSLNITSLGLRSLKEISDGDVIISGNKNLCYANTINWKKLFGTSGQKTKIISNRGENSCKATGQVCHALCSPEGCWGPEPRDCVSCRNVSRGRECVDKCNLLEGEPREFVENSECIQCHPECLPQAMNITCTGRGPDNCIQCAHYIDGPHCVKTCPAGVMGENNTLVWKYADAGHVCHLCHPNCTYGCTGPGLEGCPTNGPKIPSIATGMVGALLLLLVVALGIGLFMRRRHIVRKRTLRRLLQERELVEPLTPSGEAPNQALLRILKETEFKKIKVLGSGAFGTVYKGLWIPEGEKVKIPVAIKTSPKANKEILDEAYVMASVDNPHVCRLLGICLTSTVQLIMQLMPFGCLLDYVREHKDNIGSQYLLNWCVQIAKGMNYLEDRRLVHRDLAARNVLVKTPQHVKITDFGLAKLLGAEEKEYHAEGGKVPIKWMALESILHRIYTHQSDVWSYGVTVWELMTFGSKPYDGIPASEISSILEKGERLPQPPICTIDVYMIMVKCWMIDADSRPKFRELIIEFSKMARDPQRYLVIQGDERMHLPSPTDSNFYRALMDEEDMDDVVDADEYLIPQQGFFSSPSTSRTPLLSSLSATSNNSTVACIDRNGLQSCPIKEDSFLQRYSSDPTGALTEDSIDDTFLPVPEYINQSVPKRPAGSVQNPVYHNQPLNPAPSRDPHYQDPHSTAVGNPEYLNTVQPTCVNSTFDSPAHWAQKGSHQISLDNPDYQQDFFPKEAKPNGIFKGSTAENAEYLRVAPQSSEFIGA
In short: (§2)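 MTT read-out; BaF3 lines carrying EGFR mutations vs wildtype-EGFR BaF3 control.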

[5] = biological target: T2, BaF3 cells expressing the target EGFR mutations (Homo sapiens, UniProt P00533, T790M/L858R, cells depend on it); assay: as above; format: cell-based; conditions: BAF3 EGFR L858R-T790M PURO POOL cells, read-out: IC50, BAF3 EGFR L858R-T790M PURO POOL
T2 construct: IC50, BAF3 EGFR L858R-T790M PURO POOL; other: BAF3 EGFR L858R-T790M PURO POOL cells, MTT; IC50, BAF3 EGFR L858R-T790M PURO POOL; other: BAF3 EGFR L858R-T790M PURO POOL cells; MTT
T2 sequence (P00533 whole entry T790M/L858R): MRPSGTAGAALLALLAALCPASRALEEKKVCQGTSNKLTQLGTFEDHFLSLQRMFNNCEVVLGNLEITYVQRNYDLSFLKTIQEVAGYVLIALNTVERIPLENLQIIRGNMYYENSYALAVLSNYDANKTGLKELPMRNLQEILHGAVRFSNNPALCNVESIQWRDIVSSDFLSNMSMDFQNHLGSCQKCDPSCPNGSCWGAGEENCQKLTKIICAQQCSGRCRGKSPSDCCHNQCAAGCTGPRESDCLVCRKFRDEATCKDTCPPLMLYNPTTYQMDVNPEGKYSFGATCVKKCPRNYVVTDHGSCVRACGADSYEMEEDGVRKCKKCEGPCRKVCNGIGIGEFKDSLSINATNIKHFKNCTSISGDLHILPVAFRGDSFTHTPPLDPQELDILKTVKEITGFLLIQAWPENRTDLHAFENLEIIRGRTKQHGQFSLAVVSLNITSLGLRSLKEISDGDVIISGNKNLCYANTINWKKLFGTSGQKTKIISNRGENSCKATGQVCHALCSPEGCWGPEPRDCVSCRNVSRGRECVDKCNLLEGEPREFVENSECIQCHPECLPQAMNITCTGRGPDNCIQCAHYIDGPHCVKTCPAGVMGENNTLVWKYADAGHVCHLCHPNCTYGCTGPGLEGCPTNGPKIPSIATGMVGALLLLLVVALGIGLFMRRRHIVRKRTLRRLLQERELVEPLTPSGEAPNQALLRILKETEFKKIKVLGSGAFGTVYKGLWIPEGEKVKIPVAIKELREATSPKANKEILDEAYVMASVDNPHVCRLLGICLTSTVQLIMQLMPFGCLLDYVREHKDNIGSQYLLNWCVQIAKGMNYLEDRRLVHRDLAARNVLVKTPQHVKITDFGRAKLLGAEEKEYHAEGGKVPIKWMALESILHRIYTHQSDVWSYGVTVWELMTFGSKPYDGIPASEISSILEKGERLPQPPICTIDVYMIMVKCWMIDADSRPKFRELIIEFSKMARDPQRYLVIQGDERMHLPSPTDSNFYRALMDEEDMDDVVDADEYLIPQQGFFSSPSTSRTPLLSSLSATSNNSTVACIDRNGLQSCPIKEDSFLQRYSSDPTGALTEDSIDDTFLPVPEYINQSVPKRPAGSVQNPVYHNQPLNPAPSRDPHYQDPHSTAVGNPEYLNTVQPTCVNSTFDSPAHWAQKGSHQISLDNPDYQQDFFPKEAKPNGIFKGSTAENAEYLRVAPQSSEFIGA
In short: as §2

[6] = tested on: BaF3 cells expressing wildtype EGFR; assay: Antiproliferative activity (MTT) against control BaF3 cells expressing wildtype EGFR; format: cell-based; conditions: Mus musculus, BAF3 parental cells
In short: as §2

Chain of human EGFR (native sequence) (P00533 25-1210): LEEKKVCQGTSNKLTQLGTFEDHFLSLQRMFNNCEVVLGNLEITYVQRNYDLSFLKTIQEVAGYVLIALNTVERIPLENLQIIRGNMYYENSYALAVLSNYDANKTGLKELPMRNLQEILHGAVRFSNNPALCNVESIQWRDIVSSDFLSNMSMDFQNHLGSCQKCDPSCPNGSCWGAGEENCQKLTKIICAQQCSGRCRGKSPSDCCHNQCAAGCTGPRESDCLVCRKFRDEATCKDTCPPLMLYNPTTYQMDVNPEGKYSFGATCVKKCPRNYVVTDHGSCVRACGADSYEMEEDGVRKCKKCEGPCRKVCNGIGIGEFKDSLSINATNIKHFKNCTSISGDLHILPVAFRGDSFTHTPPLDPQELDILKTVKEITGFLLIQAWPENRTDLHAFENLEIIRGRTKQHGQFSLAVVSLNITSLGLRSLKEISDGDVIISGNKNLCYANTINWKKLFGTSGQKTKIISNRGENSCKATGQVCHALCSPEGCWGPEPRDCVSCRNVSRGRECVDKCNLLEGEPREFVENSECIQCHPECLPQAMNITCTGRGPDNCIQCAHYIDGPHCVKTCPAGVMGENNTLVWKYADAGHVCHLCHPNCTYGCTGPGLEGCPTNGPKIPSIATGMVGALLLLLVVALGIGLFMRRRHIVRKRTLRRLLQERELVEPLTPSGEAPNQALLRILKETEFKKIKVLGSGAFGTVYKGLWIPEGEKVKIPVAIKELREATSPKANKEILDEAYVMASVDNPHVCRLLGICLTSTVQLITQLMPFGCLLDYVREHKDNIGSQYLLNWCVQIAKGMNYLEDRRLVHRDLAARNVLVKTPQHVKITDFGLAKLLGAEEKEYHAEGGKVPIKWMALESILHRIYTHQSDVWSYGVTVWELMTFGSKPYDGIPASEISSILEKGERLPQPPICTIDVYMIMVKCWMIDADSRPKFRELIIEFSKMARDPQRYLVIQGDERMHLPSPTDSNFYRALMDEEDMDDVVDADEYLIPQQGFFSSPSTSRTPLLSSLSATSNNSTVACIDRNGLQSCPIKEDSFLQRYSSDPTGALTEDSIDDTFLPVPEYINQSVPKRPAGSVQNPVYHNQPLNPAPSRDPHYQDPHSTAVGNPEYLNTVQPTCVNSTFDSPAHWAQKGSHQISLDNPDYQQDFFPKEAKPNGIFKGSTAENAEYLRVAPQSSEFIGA

C=CC(=O)Nc1ccc(OC)c(Nc2ncc(Cl)c(Nc3ccc(OCCCN(C)C)cc3P(C)(C)=O)n2)c1 [Example 126, N-(3-((5-chloro-4-((4-(3-(dimethylamino)propoxy)-2-(dimethylphosphoryl)phenyl)amino)pyrimidin-2-yl)amino)-4-methoxyphenyl)acrylamide]
IC50 [1]: < 50 nM | IC50 [2]: < 50 nM | IC50 [3]: < 50 nM | GI50 [4]: < 50 nM | GI50 [5]: < 50 nM | IC50 [6]: ≥ 250 nM

C=CC(=O)Nc1cc(Nc2ncc(Cl)c(Nc3ccccc3P(C)(C)=O)n2)c(OC)cc1C#CCCN(C)C [Example 128, N-(5-((5-chloro-4-((2-(dimethylphosphoryl)phenyl)amino)pyrimidin-2-yl)amino)-2-(4-(dimethylamino)but-1-yn-1-yl)-4-methoxyphenyl)acrylamide]
IC50 [1]: < 50 nM | IC50 [2]: < 50 nM | IC50 [3]: < 50 nM | GI50 [4]: < 50 nM | GI50 [5]: < 50 nM | IC50 [6]: ≥ 250 nM

C=CC(=O)Nc1cc(Nc2ncc(Cl)c(Nc3ccccc3P(C)(C)=O)n2)c(OC)cc1O[C@@H](COC)CN(C)C [Example 129, (R)-N-(5-((5-chloro-4-((2-(dimethylphosphoryl)phenyl)amino)pyrimidin-2-yl)amino)-2-((1-(dimethylamino)-3-methoxypropan-2-yl)oxy)-4-methoxyphenyl)acrylamide]
IC50 [1]: < 50 nM | IC50 [2]: < 50 nM | IC50 [3]: < 50 nM | GI50 [4]: < 50 nM | GI50 [5]: < 50 nM | IC50 [6]: ≥ 250 nM

C=CC(=O)Nc1cc(Nc2ncc(Cl)c(Nc3ccccc3P(C)(C)=O)n2)c(OC)cc1OC(COC)CN(C)C (stereo not drawn) [Example 130, N-(5-((5-chloro-4-((2-(dimethylphosphoryl)phenyl)amino)pyrimidin-2-yl)amino)-2-((1-(dimethylamino)-3-methoxypropan-2-yl)oxy)-4-methoxyphenyl)acrylamide]
IC50 [1]: < 50 nM | IC50 [2]: < 50 nM | IC50 [3]: < 50 nM | GI50 [4]: < 50 nM | GI50 [5]: < 50 nM | IC50 [6]: ≥ 250 nM

C=CC(=O)Nc1ccc(OC)c(Nc2ncc(OC)c(Nc3ccccc3P(C)(C)=O)n2)c1 [Example 131, N-(3-((4-((2-(dimethylphosphoryl)phenyl)amino)-5-methoxypyrimidin-2-yl)amino)-4-methoxyphenyl)acrylamide]
IC50 [1]: 50 to 100 nM | IC50 [2]: < 50 nM | IC50 [3]: < 50 nM | GI50 [4]: < 50 nM | GI50 [5]: 50 to 100 nM | IC50 [6]: ≥ 250 nM

C=C(Cl)C(=O)Nc1ccc(OC)c(Nc2ncc(Cl)c(Nc3ccccc3P(C)(C)=O)n2)c1 [Example 132, 2-chloro-N-(3-((5-chloro-4-((2-(dimethylphosphoryl)phenyl)amino)pyrimidin-2-yl)amino)-4-methoxyphenyl)acrylamide]
IC50 [1]: < 50 nM | IC50 [2]: < 50 nM | IC50 [3]: < 50 nM | GI50 [4]: < 50 nM | GI50 [5]: 101 to 250 nM | IC50 [6]: ≥ 250 nM

C=CC(=O)Nc1cc(Nc2ncc(Cl)c(Nc3ccccc3P(C)(C)=O)n2)c(OC)cc1C [Example 133, N-(5-((5-chloro-4-((2-(dimethylphosphoryl)phenyl)amino)pyrimidin-2-yl)amino)-4-methoxy-2-methylphenyl)acrylamide]
IC50 [1]: < 50 nM | IC50 [2]: < 50 nM | IC50 [3]: < 50 nM | GI50 [4]: < 50 nM | GI50 [5]: < 50 nM | IC50 [6]: ≥ 250 nM

C=CC(=O)Nc1ccc(OC(F)(F)F)c(Nc2ncc(Cl)c(Nc3ccccc3P(C)(C)=O)n2)c1 [Example 134, N-(3-((5-chloro-4-((2-(dimethylphosphoryl)phenyl)amino)pyrimidin-2-yl)amino)-4-(trifluoromethoxy)phenyl)acrylamide]
IC50 [1]: < 50 nM | IC50 [2]: < 50 nM | IC50 [3]: < 50 nM | GI50 [4]: < 50 nM | GI50 [5]: < 50 nM | IC50 [6]: ≥ 250 nM

C=CC(=O)Nc1ccc(CC)c(Nc2ncc(Cl)c(Nc3ccccc3P(C)(C)=O)n2)c1 [Example 135, N-(3-((5-chloro-4-((2-(dimethylphosphoryl)phenyl)amino)pyrimidin-2-yl)amino)-4-ethylphenyl)acrylamide]
IC50 [1]: < 50 nM | IC50 [2]: < 50 nM | IC50 [3]: < 50 nM | GI50 [4]: < 50 nM | GI50 [5]: < 50 nM | IC50 [6]: ≥ 250 nM

C=CC(=O)Nc1ccc(Cl)c(Nc2ncc(Cl)c(Nc3ccccc3P(C)(C)=O)n2)c1 [Example 136, N-(4-chloro-3-((5-chloro-4-((2-(dimethylphosphoryl)phenyl)amino)pyrimidin-2-yl)amino)phenyl)acrylamide]
IC50 [1]: < 50 nM | IC50 [2]: < 50 nM | IC50 [3]: < 50 nM | GI50 [4]: < 50 nM | GI50 [5]: < 50 nM | IC50 [6]: ≥ 250 nM

COc1ccc(NC(=O)CCl)cc1Nc1ncc(Cl)c(Nc2ccccc2P(C)(C)=O)n1 [Example 137, 2-chloro-N-(3-((5-chloro-4-((2-(dimethylphosphoryl)phenyl)amino)pyrimidin-2-yl)amino)-4-methoxyphenyl)acetamide]
IC50 [1]: < 50 nM | IC50 [2]: < 50 nM | IC50 [3]: < 50 nM | GI50 [4]: < 50 nM | GI50 [5]: < 50 nM | IC50 [6]: ≥ 250 nM

C=CC(=O)Nc1ccc(OC2COC2)c(Nc2ncc(Cl)c(Nc3ccccc3P(C)(C)=O)n2)c1 [Example 138, N-(3-((5-chloro-4-((2-(dimethylphosphoryl)phenyl)amino)pyrimidin-2-yl)amino)-4-(oxetan-3-yloxy)phenyl)acrylamide]
IC50 [1]: ≥ 250 nM | IC50 [2]: ≥ 250 nM | IC50 [3]: ≥ 250 nM | GI50 [4]: ≥ 250 nM | GI50 [5]: ≥ 250 nM | IC50 [6]: ≥ 250 nM

C=CC(=O)Nc1ccc(OC)c(Nc2ncc(C#N)c(Nc3ccccc3P(C)(C)=O)n2)c1 [Example 139, N-(3-((5-cyano-4-((2-(dimethylphosphoryl)phenyl)amino)pyrimidin-2-yl)amino)-4-methoxyphenyl)acrylamide]
IC50 [1]: < 50 nM | IC50 [2]: < 50 nM | IC50 [3]: < 50 nM | GI50 [4]: 101 to 250 nM | GI50 [5]: ≥ 250 nM | IC50 [6]: ≥ 250 nM

COc1cc(C)c(NC(=O)CCl)cc1Nc1ncc(Cl)c(Nc2ccccc2P(C)(C)=O)n1 [Example 140, 2-chloro-N-(5-((5-chloro-4-((2-(dimethylphosphoryl)phenyl)amino)pyrimidin-2-yl)amino)-4-methoxy-2-methylphenyl)acetamide]
IC50 [1]: < 50 nM | IC50 [2]: < 50 nM | IC50 [3]: < 50 nM | GI50 [4]: < 50 nM | GI50 [5]: < 50 nM | IC50 [6]: ≥ 250 nM

COc1ccc(NC(=O)CCl)cc1Nc1ncc(C)c(Nc2ccccc2P(C)(C)=O)n1 [Example 141, 2-chloro-N-(3-((4-((2-(dimethylphosphoryl)phenyl)amino)-5-methylpyrimidin-2-yl)amino)-4-methoxyphenyl)acetamide]
IC50 [1]: < 50 nM | IC50 [2]: < 50 nM | IC50 [3]: < 50 nM | GI50 [4]: < 50 nM | GI50 [5]: < 50 nM | IC50 [6]: ≥ 250 nM

C=CC(=O)Nc1cc(Nc2ncc(Cl)c(Nc3ccccc3P(C)(C)=O)n2)c(OC)cc1OC(COCC)CN(C)C (stereo not drawn) [Example 142, N-(5-((5-chloro-4-((2-(dimethylphosphoryl)phenyl)amino)pyrimidin-2-yl)amino)-2-((1-(dimethylamino)-3-ethoxypropan-2-yl)oxy)-4-methoxyphenyl)acrylamide]
IC50 [1]: < 50 nM | IC50 [2]: < 50 nM | IC50 [3]: < 50 nM | GI50 [4]: < 50 nM | GI50 [5]: < 50 nM | IC50 [6]: ≥ 250 nM

C=CC(=O)Nc1cc(Nc2ncc(Cl)c(Nc3ccccc3P(C)(C)=O)n2)c(C)cc1OC(COC)CN(C)C (stereo not drawn) [Example 143]
IC50 [1]: < 50 nM | IC50 [2]: < 50 nM | IC50 [3]: < 50 nM | GI50 [4]: < 50 nM | GI50 [5]: < 50 nM | IC50 [6]: ≥ 250 nM

C=CC(=O)Nc1cc(Nc2ncc(Cl)c(Nc3ccccc3P(C)(C)=O)n2)c(Cl)cc1OC(COC)CN(C)C (stereo not drawn) [Example 145, N-(4-chloro-5-((5-chloro-4-((2-(dimethylphosphoryl)phenyl)amino)pyrimidin-2-yl)amino)-2-((1-(dimethylamino)-3-methoxypropan-2-yl)oxy)phenyl)acrylamide]
IC50 [1]: < 50 nM | IC50 [2]: < 50 nM | IC50 [3]: < 50 nM | GI50 [4]: < 50 nM | GI50 [5]: < 50 nM | IC50 [6]: ≥ 250 nM

COc1ccc(NC(=O)CF)cc1Nc1ncc(Cl)c(Nc2ccccc2P(C)(C)=O)n1 [Example 147, N-(3-((5-chloro-4-((2-(dimethylphosphoryl)phenyl)amino)pyrimidin-2-yl)amino)-4-methoxyphenyl)-2-fluoroacetamide]
IC50 [1]: ≥ 250 nM | IC50 [2]: 50 to 100 nM | IC50 [3]: 101 to 250 nM | GI50 [4]: ≥ 250 nM | GI50 [5]: ≥ 250 nM | IC50 [6]: ≥ 250 nM

— US9834571B2, “Compounds for inhibiting cell proliferation in EGFR-driven cancers” (ARIAD Pharmaceuticals, Inc., priority 2012, dated 2017)
